Data: ChEMBL document CHEMBL5465560, “Selectivity Literature for EUbOPEN Chemogenomic Library” (2024)

Experiments:
[1] = molecular target: Transcription intermediary factor 1-alpha (Homo sapiens) (UniProt O15164); experiment: Selectivity interaction (Human bromodomain panel (DSF assay)) EUB0000233b TRIM24
[2] = molecular target: Protein kinase C theta type (Homo sapiens, UniProt Q04759); experiment: Selectivity interaction (KinomeScan (DiscoverX)) EUB0000045b PRKCQ
[3] = molecular target: Activin receptor type-2B (Homo sapiens) (UniProt Q13705); experiment: Selectivity interaction (LanthaScreen Eu Kinase Binding Assay) EUB0001632a ACVR2B; settings: at 10 µM
Chain of Activin receptor type-2B (Homo sapiens) (Q13705 whole entry): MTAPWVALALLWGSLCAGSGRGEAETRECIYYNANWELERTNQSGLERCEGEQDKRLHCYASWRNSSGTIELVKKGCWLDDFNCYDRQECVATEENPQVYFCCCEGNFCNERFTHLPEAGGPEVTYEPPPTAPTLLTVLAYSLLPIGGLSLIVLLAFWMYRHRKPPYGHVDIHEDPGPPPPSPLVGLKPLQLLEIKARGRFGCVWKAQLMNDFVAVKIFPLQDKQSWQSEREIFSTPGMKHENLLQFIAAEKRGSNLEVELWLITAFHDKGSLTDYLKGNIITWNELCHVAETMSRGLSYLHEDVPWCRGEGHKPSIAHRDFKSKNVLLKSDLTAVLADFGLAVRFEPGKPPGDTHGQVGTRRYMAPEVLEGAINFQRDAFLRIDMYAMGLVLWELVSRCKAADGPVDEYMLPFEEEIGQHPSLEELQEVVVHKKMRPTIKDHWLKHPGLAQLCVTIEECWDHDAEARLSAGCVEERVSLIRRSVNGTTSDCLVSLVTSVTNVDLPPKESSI

[4] = molecular target: Fibroblast growth factor receptor 2 (Homo sapiens) (UniProt P21802); experiment: Selectivity interaction (Kinase panel (Z-LYTE Assay)) EUB0001632a FGFR2; settings: at 10 µM
Chain of Fibroblast growth factor receptor 2 (Homo sapiens) (P21802 22-821 limits assumed): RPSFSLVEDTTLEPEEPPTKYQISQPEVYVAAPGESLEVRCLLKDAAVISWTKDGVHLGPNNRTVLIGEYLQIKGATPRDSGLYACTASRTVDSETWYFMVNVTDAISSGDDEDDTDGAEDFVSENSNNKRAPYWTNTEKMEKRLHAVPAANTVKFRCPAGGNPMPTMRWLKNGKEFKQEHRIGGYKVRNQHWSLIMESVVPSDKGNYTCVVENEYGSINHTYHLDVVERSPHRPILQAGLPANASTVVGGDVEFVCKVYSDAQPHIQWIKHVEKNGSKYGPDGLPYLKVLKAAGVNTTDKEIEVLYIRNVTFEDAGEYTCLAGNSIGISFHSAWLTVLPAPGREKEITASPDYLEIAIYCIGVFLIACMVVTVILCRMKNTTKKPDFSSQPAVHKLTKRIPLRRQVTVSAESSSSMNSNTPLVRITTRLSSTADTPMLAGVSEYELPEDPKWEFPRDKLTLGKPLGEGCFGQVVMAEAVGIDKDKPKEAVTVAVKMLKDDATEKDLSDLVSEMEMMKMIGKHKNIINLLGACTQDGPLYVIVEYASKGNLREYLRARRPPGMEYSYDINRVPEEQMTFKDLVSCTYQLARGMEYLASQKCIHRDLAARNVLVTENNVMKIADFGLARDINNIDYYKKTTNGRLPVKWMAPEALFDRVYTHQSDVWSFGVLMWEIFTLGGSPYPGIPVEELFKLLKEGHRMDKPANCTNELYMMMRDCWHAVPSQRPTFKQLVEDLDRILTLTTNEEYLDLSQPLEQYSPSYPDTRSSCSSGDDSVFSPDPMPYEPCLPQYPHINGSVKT

[5] = molecular target: T1, Serine/threonine-protein kinase Nek9 (Homo sapiens) (UniProt Q8TD19); settings: at 10 µM
T1 sequence (whole entry): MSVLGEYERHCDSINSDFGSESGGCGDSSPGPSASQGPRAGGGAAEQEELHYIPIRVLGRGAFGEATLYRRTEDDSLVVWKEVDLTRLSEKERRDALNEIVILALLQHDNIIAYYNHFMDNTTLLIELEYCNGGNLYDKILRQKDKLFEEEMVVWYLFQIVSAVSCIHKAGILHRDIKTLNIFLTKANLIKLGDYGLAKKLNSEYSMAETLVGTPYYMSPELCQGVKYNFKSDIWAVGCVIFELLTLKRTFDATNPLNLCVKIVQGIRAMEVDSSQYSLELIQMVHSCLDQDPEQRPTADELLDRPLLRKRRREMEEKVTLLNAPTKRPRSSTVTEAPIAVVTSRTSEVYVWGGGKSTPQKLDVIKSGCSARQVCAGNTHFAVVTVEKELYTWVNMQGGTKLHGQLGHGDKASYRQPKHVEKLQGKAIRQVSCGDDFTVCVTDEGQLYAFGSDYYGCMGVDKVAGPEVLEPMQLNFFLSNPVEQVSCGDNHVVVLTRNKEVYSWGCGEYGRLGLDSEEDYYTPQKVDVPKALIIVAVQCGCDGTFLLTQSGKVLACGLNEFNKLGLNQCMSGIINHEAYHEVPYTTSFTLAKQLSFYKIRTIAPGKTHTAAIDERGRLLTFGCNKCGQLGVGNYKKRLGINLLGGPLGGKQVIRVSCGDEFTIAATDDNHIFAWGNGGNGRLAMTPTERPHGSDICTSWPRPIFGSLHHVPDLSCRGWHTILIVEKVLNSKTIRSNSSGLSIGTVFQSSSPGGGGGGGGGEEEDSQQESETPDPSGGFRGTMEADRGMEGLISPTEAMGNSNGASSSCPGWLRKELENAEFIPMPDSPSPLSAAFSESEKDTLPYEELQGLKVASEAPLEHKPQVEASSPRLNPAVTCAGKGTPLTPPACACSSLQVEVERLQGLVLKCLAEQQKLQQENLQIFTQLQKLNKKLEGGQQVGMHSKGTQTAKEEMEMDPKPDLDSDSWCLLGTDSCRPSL

[6] = molecular target: T2, Mitogen-activated protein kinase 15 (Homo sapiens) (UniProt Q8TD08); experiment: Selectivity interaction (Kinase panel (literature)) EUB0001199aCl MAPK15; settings: at 1 µM
T2 sequence (whole entry): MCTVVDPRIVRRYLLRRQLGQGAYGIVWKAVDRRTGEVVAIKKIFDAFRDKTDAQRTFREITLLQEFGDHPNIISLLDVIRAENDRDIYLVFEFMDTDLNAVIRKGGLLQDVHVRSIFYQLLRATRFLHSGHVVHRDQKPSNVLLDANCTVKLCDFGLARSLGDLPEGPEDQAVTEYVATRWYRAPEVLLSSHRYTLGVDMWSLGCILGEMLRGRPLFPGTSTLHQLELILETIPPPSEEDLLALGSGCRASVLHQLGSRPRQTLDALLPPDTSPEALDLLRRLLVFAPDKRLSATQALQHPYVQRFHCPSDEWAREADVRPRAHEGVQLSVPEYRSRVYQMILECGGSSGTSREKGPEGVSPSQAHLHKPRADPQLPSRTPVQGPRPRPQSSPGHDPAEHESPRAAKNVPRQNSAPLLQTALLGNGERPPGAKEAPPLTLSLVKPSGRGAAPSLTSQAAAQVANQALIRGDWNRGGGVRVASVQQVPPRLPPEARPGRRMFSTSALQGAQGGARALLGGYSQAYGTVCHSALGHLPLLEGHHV

[7] = molecular target: Fibroblast growth factor receptor 1 (Homo sapiens, UniProt P11362); experiment: Selectivity interaction (Kinase panel (DSF assay)) EUB0001558a FGFR1
[8] = molecular target: T3, Aurora kinase C (Homo sapiens) (UniProt Q9UQB9); experiment: Selectivity interaction (KinomeScan (DiscoverX)) EUB0000618a AURKC; settings: at 10 µM
T3 sequence (whole entry): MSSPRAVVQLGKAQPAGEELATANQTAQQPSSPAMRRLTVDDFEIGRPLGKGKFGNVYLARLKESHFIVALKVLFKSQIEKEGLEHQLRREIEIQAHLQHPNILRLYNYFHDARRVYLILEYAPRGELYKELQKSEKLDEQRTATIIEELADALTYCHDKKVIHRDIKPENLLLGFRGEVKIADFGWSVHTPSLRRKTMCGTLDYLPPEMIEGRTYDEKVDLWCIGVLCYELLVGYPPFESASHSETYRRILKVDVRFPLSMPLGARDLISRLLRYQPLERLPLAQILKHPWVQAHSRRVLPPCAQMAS

[9] = molecular target: T4, STE20-related kinase adapter protein alpha (Homo sapiens) (UniProt Q7RTN6); experiment: Selectivity interaction (ActivX KiNativ screen (kinase selectivity in THP-1 cell lysates)) EUB0000639a STRADA; format: subcellular; settings: lysate, at 0.01 µM
T4 sequence (whole entry): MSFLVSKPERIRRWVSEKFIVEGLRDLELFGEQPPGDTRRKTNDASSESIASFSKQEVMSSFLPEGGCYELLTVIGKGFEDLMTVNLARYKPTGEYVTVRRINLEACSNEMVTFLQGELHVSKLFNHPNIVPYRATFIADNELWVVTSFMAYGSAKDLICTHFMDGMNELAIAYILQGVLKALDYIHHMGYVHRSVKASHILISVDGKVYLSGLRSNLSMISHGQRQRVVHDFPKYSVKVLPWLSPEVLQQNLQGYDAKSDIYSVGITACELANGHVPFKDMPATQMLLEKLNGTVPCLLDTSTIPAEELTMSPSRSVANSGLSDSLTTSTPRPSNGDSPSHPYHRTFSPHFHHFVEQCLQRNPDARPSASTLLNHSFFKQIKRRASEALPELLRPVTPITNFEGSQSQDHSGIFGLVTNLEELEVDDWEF

[10] = molecular target: Calcium/calmodulin-dependent protein kinase kinase 2 (Homo sapiens) (UniProt Q96RR4); experiment: Selectivity interaction (ActivX KiNativ screen (kinase selectivity in THP-1 cell lysates)) EUB0000639a CAMKK2; format: subcellular; settings: lysate, at 0.04 µM
Chain of Calcium/calmodulin-dependent protein kinase kinase 2 (Homo sapiens) (Q96RR4 2-588 limits assumed): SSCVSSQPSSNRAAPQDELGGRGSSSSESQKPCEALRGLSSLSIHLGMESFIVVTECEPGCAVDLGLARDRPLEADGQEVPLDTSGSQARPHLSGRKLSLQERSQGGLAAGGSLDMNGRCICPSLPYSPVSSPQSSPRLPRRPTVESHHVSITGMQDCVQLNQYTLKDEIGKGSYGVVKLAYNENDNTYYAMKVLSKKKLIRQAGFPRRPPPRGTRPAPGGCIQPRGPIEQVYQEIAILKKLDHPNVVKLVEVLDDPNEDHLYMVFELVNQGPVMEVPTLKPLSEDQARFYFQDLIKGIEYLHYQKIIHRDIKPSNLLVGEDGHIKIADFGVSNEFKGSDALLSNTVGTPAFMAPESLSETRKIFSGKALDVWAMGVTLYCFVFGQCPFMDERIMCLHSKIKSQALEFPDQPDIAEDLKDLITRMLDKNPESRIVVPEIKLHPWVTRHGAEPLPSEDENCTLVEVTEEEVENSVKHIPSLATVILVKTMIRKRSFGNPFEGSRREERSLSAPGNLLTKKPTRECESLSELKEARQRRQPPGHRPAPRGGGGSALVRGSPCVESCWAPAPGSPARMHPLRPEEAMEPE

[11] = molecular target: Maternal embryonic leucine zipper kinase (Homo sapiens) (UniProt Q14680); experiment: Selectivity interaction (KinomeScan (DiscoverX)) EUB0000655a MELK; settings: at 10 µM
Chain of Maternal embryonic leucine zipper kinase (Homo sapiens) (Q14680 whole entry, looked up): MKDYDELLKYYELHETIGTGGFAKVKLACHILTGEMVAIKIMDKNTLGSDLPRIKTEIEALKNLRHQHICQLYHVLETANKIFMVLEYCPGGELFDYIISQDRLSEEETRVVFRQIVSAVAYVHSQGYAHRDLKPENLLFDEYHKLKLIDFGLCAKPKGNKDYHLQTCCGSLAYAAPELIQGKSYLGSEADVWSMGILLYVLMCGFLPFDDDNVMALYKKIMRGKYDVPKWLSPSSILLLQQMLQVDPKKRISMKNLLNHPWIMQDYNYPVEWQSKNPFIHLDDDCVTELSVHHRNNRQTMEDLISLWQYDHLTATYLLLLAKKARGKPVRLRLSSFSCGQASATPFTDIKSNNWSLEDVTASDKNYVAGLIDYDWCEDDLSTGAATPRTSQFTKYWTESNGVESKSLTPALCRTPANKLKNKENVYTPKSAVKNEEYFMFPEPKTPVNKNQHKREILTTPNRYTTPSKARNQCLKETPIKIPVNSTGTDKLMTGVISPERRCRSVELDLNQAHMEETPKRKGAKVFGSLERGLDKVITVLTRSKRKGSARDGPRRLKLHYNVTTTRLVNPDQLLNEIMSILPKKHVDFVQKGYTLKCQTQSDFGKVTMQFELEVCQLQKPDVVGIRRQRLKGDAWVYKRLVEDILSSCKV

Chain of Protein kinase C theta type (Q04759 whole entry, looked up): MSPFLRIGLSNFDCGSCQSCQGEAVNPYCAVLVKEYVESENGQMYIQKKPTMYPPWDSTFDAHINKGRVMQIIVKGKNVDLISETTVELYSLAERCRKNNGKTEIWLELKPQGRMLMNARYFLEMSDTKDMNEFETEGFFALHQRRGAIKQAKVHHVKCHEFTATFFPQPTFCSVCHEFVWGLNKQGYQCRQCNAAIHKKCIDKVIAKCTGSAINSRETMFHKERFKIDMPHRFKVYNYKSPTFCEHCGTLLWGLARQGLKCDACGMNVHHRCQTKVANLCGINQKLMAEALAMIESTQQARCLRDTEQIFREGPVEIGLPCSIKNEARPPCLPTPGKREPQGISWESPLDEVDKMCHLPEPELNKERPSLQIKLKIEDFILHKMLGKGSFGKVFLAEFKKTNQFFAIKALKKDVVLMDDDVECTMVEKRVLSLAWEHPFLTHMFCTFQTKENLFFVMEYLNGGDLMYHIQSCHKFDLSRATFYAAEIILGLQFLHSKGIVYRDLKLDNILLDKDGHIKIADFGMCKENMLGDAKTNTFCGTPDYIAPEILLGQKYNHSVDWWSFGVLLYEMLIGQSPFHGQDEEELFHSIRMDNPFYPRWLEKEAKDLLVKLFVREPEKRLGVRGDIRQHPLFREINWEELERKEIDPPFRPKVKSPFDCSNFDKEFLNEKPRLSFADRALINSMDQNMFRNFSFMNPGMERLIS
Chain of Transcription intermediary factor 1-alpha (Homo sapiens) (O15164 whole entry): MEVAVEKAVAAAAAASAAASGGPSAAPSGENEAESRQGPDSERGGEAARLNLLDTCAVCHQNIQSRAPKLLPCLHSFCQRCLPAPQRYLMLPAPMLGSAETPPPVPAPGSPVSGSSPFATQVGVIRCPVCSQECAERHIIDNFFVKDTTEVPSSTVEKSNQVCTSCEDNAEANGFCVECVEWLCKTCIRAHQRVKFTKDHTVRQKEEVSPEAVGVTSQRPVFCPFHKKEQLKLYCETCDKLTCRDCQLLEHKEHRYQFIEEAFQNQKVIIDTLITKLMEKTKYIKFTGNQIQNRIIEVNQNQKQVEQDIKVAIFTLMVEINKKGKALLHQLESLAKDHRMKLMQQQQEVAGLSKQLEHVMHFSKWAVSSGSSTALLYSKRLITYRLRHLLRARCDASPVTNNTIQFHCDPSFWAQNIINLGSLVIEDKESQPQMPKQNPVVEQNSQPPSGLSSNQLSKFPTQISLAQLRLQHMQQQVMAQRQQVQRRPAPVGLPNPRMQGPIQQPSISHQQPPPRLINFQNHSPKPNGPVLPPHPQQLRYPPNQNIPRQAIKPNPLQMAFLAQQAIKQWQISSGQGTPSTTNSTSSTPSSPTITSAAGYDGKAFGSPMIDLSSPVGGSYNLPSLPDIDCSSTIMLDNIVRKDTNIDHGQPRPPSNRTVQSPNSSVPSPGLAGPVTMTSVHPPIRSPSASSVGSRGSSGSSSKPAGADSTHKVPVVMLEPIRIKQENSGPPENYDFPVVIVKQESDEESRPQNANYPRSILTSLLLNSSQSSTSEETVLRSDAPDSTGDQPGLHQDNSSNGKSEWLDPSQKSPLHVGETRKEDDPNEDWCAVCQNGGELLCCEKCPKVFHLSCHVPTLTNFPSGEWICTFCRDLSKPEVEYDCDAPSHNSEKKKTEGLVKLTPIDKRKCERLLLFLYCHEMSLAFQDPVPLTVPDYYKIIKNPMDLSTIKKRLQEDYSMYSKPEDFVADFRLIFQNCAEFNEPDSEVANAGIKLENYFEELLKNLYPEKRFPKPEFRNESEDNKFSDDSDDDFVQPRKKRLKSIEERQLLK

## CN(C)CCCOc1ccc(-c2cc(NCCCn3cccn3)nc(S(C)(=O)=O)n2)cc1
[1]
  dTM: < 2 K

## C=CC(=O)Nc1cc(-n2c(=O)ccc3cnc4ccc(-c5ccc(NS(C)(=O)=O)cc5)cc4c32)ccc1C
[2]; at 1 µM
  % of control: 100%
[2]; at 10 µM
  % of control: 76%

## Cn1cc(-n2cnc3c(NCc4nc5cc(Cl)c(Cl)cc5[nH]4)nc(N4CCOCC4)nc32)cn1
[3]
  % of inhibition: -21.2%
[4]
  % of control: 17.8%

## Cc1cc([C@@H](C)Nc2ccccc2C(=O)O)c2nc(N3CCOCC3)cc(=O)n2c1 [AZD-6482]
[5]
  % of control: 100%

## CN1Cc2nccc(-c3cn(C)nc3-c3ccc(F)cc3)c2C1=O
[6]
  % of inhibition: 10%

## CC(C)(O)[C@H](F)CN1Cc2cc(NC(=O)c3cnn4cccnc34)c(N3CCOCC3)cc2C1=O
[7]
  dTM: 1.1 K

## O[C@H]1CC[C@H](Nc2ncc3nc(Nc4c(F)cc(F)cc4F)n([C@H]4CCOC4)c3n2)CC1
[8]
  % of control: 100%

## CC[C@@H]1[C@H](F)C(=O)N[C@@H]1COc1nccc2cc(C(N)=O)c(OC)cc12 [ZIMLOVISERTIB]
[9]
  % of inhibition: -6.5%
[10]
  % of inhibition: -13%

## CN(C)CCOc1ccc(-c2nc(-c3ccncc3)c(-c3ccc4c(c3)CC/C4=N\O)[nH]2)cc1
[11]
  % of control: 100%
